What was measured:
[1] = system: HEK 293T cells encoding an NF-κB-driven luciferase reporter gene; test: NF-κB-driven luciferase reporter assay in HEK 293T cells; format: cell-based, human; conditions: FIG. 12; HEK 293T; 10, 30 or 50 μg/mL, digitonin 20 min, luciferase after 6 hours
Procedure: FIGS. 10A-B. Effect of chemically synthesised analogues on human embryonic kidney cells (HEK 293T) encoding an NF-κB-driven luciferase reporter gene. NF-κB luciferase activity was measured in wild type (WT) or TIFA knockout (TIFA KO) cells treated with compounds in the presence of digitonin for 20 min, washed, and then cultured in normal medium without the synthetic compounds for 6 hrs after treatment, before luciferase activity was measured. (A) Cells were treated with 10 μg/mL of the indicated compound. Data are means±standard error mean of technical triplicates. (B) Cells were treated with two different molar concentrations of compound (30 μM or 150 μM). Two batches of DD-β-HBP and DD-β-HMP synthesized independently of one another were tested (batch #1 and batch #2) to assess consistency of the chemical synthesis. Data are means±standard error mean of technical triplicates and are representative of three independent experiments. JS-12: D-glycero-D-manno-heptose; JS-2: D-glycero-D-manno-heptose 7-phosphate; JS-7:D-glycero-β-D-manno-heptose-phosphate; JS-8: D-glycero-α-D-manno-heptose-phosphate; JS-9: β-D-mannose phosphate; JS-6:D-glycero-β-D-manno heptose 1,7-biphosphate; JS-5: D-glycero-α-D-manno heptose 1,7-biphosphate.
FIG. 12. Effects of compounds/products according to the invention on HEK 293T cells encoding an NF-κB-driven luciferase reporter gene. HEK 293T cells were transfected with a plasmid encoding an NF-κB-driven luciferase reporter. After 24 hours, cells were stimulated for 20 minutes in permeabilization buffer (5 μg/mL digitonin) in the presence of water or 10 μg/mL, 30 μg/mL, or 50 μg/mL of indicated synthetic compounds according to the invention. Treatment was removed; cells were washed and incubated for 6 hours incomplete medium. A luciferase assay was then performed. JS-12a control: D-glycero-D-manno heptose. The results are the means±standard error of the mean of three technical replicates. JS-10: 7-O-(Aminoethyl)-D-glycero-β-D-manno-heptopyranose phosphate; JS-11: 7-O-(Aminoethyl)-D-glycero-D-manno-heptopyranose; JS-12: D-glycero-D-manno-heptose; Js-13: pH-Rhodo-7-O-(aminoethyl)-D-glycero-β-D-manno-heptopyranose phosphate.
FIG. 14. Effects of compounds/products according to the invention on HEK 293T cells encoding an NF-κB-driven luciferase reporter gene. HEK 293T cells were transfected with a plasmid encoding an NF-κB-driven luciferase reporter. After 24 hours, cells were stimulated for 20 minutes in permeabilization buffer (5 μg/mL digitonin) in the presence of water, or either 30 μM or 150 μM of indicated synthetic compounds according to the invention. Treatment was removed; cells were washed and incubated for 6 hours in complete medium. A luciferase assay was then performed. […]

[2] = system: human macrophage cells (THP-1); test: IL-8 ELISA in THP-1 cells after digitonin-permeabilised stimulation; format: cell-based; conditions: FIG. 15, higher (150 μM) concentrations, digitonin 20 min, IL-8 after 6 hours
Procedure: FIG. 15. Stimulation of human macrophages by compounds/products according to the invention. Human macrophage cells (THP-1) were stimulated for 20 minutes in permeabilization buffer (5 μg/mL digitonin) in the presence of water, 39.8 μM of the Nod1 agonist C12-iE-DAP (which stimulates in a TIFA-independent manner), or either 30 μM or 150 μM of synthetic compound according to the invention. Treatment was removed, cells were washed, and cells were incubated for 6 hours in complete media before the IL-8 levels in culture supernatants were measured by ELISA. The results are the mean and standard error of the mean of three technical replicates. Nod1 agonist: C12-iE-DAP (20 μg/ml, 39.8 μM); JS-7: JS-7:D-glycero-β-D-manno-heptose-phosphate; JS-10: 7-O-(Aminoethyl)-D-glycero-β-D-manno-heptopyranose phosphate; JS-14: Biotin-7-O-(aminoethyl)-D-glycero-β-D-manno-heptopyranose phosphate.

`NCCOC[C@@H](O)C1O[C@@H](OP(=O)([O-])[O-])C(O)[C@@H](O)[C@@H]1O.[Na+].[Na+]` (stereo partly drawn) [JS-10a, 7-O-(Aminoethyl)-D-glycero-β-D-manno-heptopyranose phosphate] was tested, and the “inflammatory response (NF-κB luciferase)” value [1] was “modest inflammatory response” and the “inflammatory response (IL-8 in culture supernatant)” value [2] was “stimulate an inflammatory response”.
